Data taken from US20080145409A1, “COMPOSITION FOR THE TREATMENT AND PREVENTION OF PEPTIC ULCER” (priority 2006, published 2008).
Where a name gives a salt, the structure may show the parent alone.

Legend:
[1] = tested on: gastric injury induced by ethanol; assay: Gastric ulcers induced by absolute ethanol in rats; format: in vivo, Sprague-Dawley derived male rats; conditions: for Average (gastric ulceration score 0-4): 30 min before absolute ethanol 1 ml/rat, scored 1 h later, 5 rats
Excerpt: The purpose of this study was to investigate the effect of MIC31 (Citronellol) and its analogues/derivatives on gastric injury induced by ethanol in the rat. Gastric damage was produced by oral administration of absolute ethanol to rats. The severity of the ethanol-induced gastric damage varied considerably within the vehicle-treated group of rats which served as the negative controls.
Animals studied in this example were Sprague-Dawley derived Male Rats from Yung-Min Medical University Laboratory Animal Center. The age of these rats are 7 weeks old. Each group has 5 rats, and their body weight at arrival was 180±10 gm. Upon arrival, heath status of rats will undergo a minimum of one week acclimation period prior to the start of the experiment. At the first day of study, body weights are measured and the animals are grouped according to experiment design. The environmental conditions are listed below:
(10 ml/kg) to a group of 5 Sprague-Dawley derived male rats overnight fasted weighing 180±10 gm at 30 minutes before absolute ethanol challenge (1 ml/rat, P.O.). One hour later, the animals are sacrificed and the stomachs are opened along the greater curvature. Gastric ulceration is scored for degree of hemorrhage and severity of ulcerative lesions as follows: 0=no hyperemia or lesion […], 1=hyperemia, 2=one or two slight lesions, 3=more than two slight lesions, 4=more than two lesions or severe lesions. Reduction of concurrent control score values by 50 percent or more (≧50%) is considered significant. During the experimental phase, body weight will be documented.

[2] = tested on: Helicobacter pylori-induced ulcers; assay: Helicobacter pylori-induced gastric ulceration in mice; format: in vivo, male CD-1 (Crl.) derived mice; conditions: for Ulceration Score Total: N=5 mice, day 8
Experimental: MIC-31 (Citronellol) and MIC-32 (Geraniol) were evaluated for their abilities to protect mice from the Helicobacter pylori-induced ulcers. MIC-31 was dosed at 50, 25, 12.5 and 6.25 mg/kg, P.O., as well as at 25 and 12.5 mg/kg, I.P. MIC-32 was dosed at 25 and 12.5 mg/kg, P.O. These dosing regimes were administered twice daily for 7 consecutive days beginning with the first dose given at one hour after Helicobacter pylori inoculation. On day 8, Gastric ulceration was scored as 0, 1, 2 or 3 (3 being most severe relative to vehicle control) according to the degree of hemorrhage and severity of lesions on the gastric mucosa. MIC-31 and MIC-32 were dissolved in 2% Tween 80 for oral (P.O.) and in 2% Tween 80/0.9% NaCl for intraperitoneal (I.P.) administration. MIC-31 at doses of 50, 25, 12.5, 6.25 mg/kg (P.O.) and 25, 12.5 mg/kg (I.P.), as well as MIC-32 at 25 and 12.5 mg/kg (P.O.), were administered to test animals twice daily for 7 consecutive days. The dosing volume was 10 ml/kg. Male CD-1 (Crl.) derived mice weighing 24±2 g were provided. Space allocation for 10 animals was 29×18×13 cm. Mice were housed in cages and maintained in a controlled temperature (22° C.-23° C.) and humidity (70%-80%) environment with 12 hours light dark cycles for at least one week prior to use. Free access to standard lab chow for mice and tap water was granted. Groups of 5 male CD-1 (Crl.) derived mice weighing 24±2 g, were fasted for 18 hours prior to intragastric inoculation of Helicobacter pylori in suspension at 9.5×10^9 CFU/0.4 ml/mouse. […] MIC-31 was also dosed intraperitoneally at 25 mg/kg and 12.5 mg/kg, starting also one hour after the Helicobacter pylori inoculation, twice daily for 7 consecutive days. Omeprazole 1 mg/kg and Clarithromycin 10 mg/kg, in combination, were used as positive controls and administered orally to test animals once daily for 7 consecutive days under the same treatment regime. Eight days after infection, all animals were fasted overnight and sacrificed. Each stomach was dissected along the greater curvature. Gastric ulceration was scored at four levels according to the degree of hemorrhage and severity of ulcerative lesions: 0=normal appearance, 1=mild red spots, 2=moderate red spots and/or hemorrhage spots, 3=marked hemorrhage spots. Reduction of ulceration score by 50 percent or more (≧50%) relative to vehicle control score values is considered significant. In addition, blood of each animal was collected from the retro-orbital sinus on day 8 and plasma sample was kept frozen at −80° C. until returned to the sponsor. Tissues of stomach and intestines were removed by surgical excision and immersed in 10% Neutral-Buffer formalin for histopathological examination.

[3] = Rattus norvegicus, po, 1 h, 30 mg/kg P.O., 30 min before absolute ethanol, >=50% considered significant, read-out: Reduction (%) of ulceration score vs concurrent vehicle control
[4] = Rattus norvegicus, po, 1 h, 100 mg/kg P.O., 30 min before absolute ethanol, >=50% considered significant, read-out: Reduction (%) of ulceration score vs concurrent vehicle control
[5] = Rattus norvegicus, po, 1 h, 300 mg/kg P.O., 30 min before absolute ethanol, >=50% considered significant, read-out: Reduction (%) of ulceration score vs concurrent vehicle control
[6] = 30 mg/kg P.O., 30 min before absolute ethanol, >=50% considered significant
[7] = 100 mg/kg P.O., 30 min before absolute ethanol, >=50% considered significant
[8] = 300 mg/kg P.O., 30 min before absolute ethanol, >=50% considered significant
[9] = PO 12.5 mg/kg x 2 x 7 days, score 0-3 each
[10] = PO 25 mg/kg x 2 x 7 days, score 0-3 each

| Structure (SMILES) | Average (gastric ulceration score 0-4) ([1]; 30 mg/kg P.O.) | Average (gastric ulceration score 0-4) ([1]; 100 mg/kg P.O.) | Average (gastric ulceration score 0-4) ([1]; 300 mg/kg P.O.) | inhibition in vivo at 30 mg/kg [1, 3] | inhibition in vivo at 100 mg/kg [1, 4] | inhibition in vivo at 300 mg/kg [1, 5] | Reduction (%) of ulceration score vs concurrent vehicle control [1, 6] | Reduction (%) of ulceration score vs concurrent vehicle control [1, 7] | further results |
| --- | --- | --- | --- | --- | --- | --- | --- | --- | --- |
| CC(C)=CCCC(C)CC(=O)O (stereo not shown) [MIC-35, Citronellic acid] | 2 | 1.6, | 1.4 | 38% | 50% | 56% | – | – | – |
| CC(C)=CCCC(C)CCOC(=O)C(C)C (stereo not shown) [MIC-38, Citronellyl isobutryrate] | 3.2 | 1.8 | 1.2 | – | – | – | 0% | 40% | Reduction (%) of ulceration score vs concurrent vehicle control [1, 8]: 60% |
| CCC(=O)OCCC(C)CCC=C(C)C (stereo not shown) [MIC-40, Citronellyl propionate] | 3.4 | 2.8 | 1.2 | 6% | 22% | 67% | – | – | – |
| C/C=C(\C)C(=O)OCCC(C)CCC=C(C)C (stereo not shown) [MIC-44, Citronellyl tiglate] | 2.8 | 1.8 | 2.2 | 22% | 50% | 39% | – | – | – |
| CC(C)=CCCC(C)CCO (stereo not drawn) [MIC-45, (−)-β-Citronellol] | 2.6 | 1.2 | 1.6 | – | – | – | 28% | 67% | Reduction (%) of ulceration score vs concurrent vehicle control [1, 8]: 83% |
| CC(C)=CCC/C(C)=C/CO [MIC-32, Geraniol] | – | – | – | – | – | – | – | – | Ulceration Score Total [2, 9]: 13; % Inhibition of ulceration score vs vehicle ([2]; PO 12.5 mg/kg x 2 x 7 days, >=50% significant (in parentheses)): 13%; Ulceration Score Total [2, 10]: 11; % Inhibition of ulceration score vs vehicle ([2]; PO 25 mg/kg x 2 x 7 days, >=50% significant (in parentheses)): 27% |
| CC(=O)OCCC(C)CCC=C(C)C (stereo not shown) [MIC-39, Citronellyl acetate] | 2.4 | 0.8 | 0.8 | 20% | 73% | 73% | – | – | – |
| CC(C)=CCCC(C)CCOC=O (stereo not shown) [MIC-41, Citronellyl formate] | 3.2 | 1 | 1.4 | 0% | 69% | 56% | – | – | – |
| CC(C)=CCCC(C)CCO (stereo not shown) [MIC-42, Citronellol] | 1.6 | 0.8 | 1.6 | – | – | – | 53% | 76% | Reduction (%) of ulceration score vs concurrent vehicle control [1, 8]: 53% |
| CC(C)=CCC[C@@H](C)CCBr [MIC-43, (R)-(−)-Citronellyl bromide] | 2.4 | 1.6 | 1.6 | 29% | 53% | 53% | – | – | – |
| COc1ccc2[nH]c([S+]([O-])Cc3ncc(C)c(OC)c3C)nc2c1 (stereo not shown) [Omeprazole, reference compound] | – | – | – | – | – | – | – | – | Average (gastric ulceration score 0-4) ([1]; 50 mg/kg P.O.): 2.2; inhibition in vivo at 50 mg/kg ([1]; Rattus norvegicus, po, 1 h, 50 mg/kg P.O., 30 min before absolute ethanol, >=50% considered significant, read-out: Reduction (%) of ulceration score vs concurrent vehicle control): 39% |
| CC(C)=CCCC(C)CCO (stereo not shown) [MIC-31, Citronellol] | 1 | 0.4 | – | – | – | – | 72% | 89% | Ulceration Score Total ([2]; IP 12.5 mg/kg x 2 x 7 days): 2; Ulceration Score Total ([2]; IP 25 mg/kg x 2 x 7 days): 8; % Inhibition of ulceration score vs vehicle ([2]; IP 25 mg/kg x 2 x 7 days, >=50% significant): 47%; Ulceration Score Total ([2]; PO 6.25 mg/kg x 2 x 7 days, score 0-3 each): 11; % Inhibition of ulceration score vs vehicle ([2]; PO 6.25 mg/kg x 2 x 7 days, >=50% significant (in parentheses)): 27%; Ulceration Score Total [2, 9]: 7; Ulceration Score Total [2, 10]: 3; Ulceration Score Total ([2]; PO 50 mg/kg x 2 x 7 days, score 0-3 each): 2; Protecting effect on stomach after challenge with absolute ethanol (in words) ([1]; single oral dose 30 min before alcohol challenge, rats): can inhibit the severity degree of hemorrhage and ulcerative lesions in stomach |
| CC(C)=CCC[C@H](C)CCBr [MIC-36, (s)-(+)-Citronellyl bromide] | 2 | 1.4 | 1.6 | 33% | 53% | 47% | – | – | – |
